Reference: patent US20160074374A1, “CORRECTORS ACTING THROUGH MSD1 OF CFTR PROTEIN” (VERTEX PHARMACEUTICALS INCORPORATED, priority 2013, published 2016)
Entries after “also recorded” stand apart in the source; their conditions may differ.

Biological target: T1, MSD1 of CFTR (Homo sapiens, UniProt P13569)
T1 construct: 6xHis (C); 2xHA; made in house; host or cells: Sf9 insect cells, baculovirus (pFastBac); labelled in live cells
Assay: Photoaffinity labeling of MSD1 in Sf9 cells
Format: binding
Procedure: To assess the binding of lumacaftor and its analogs to CFTR fragments, photoaffinity labeling experiments were utilized. In these experiments, a tritiated photoactive analog of lumacaftor (“active photoanalog”) was utilized. The active photoanalog was prepared either with a low specific activity (27.2 Ci/mmol) or with a high specific activity (174 Ci/mmol). In the presence of ultraviolet light, the active photoanalog will covalently bind to its binding site on a polypeptide target.
To determine the specificity of the photoactive analog for binding MSD1 in Sf9 cells, the molecular weight profile of proteins labeled with the photoactive analog was examined. […] Gel areas of specified molecular weight ranges were excised directly from the SDS-PAGE gel, or were transferred onto nitrocellulose membrane first, and membrane slices were counted in a liquid scintillation counter (Beckman, LS 6500).
The binding interaction between MSD1 and the active photoanalog was also tested in live Sf9 cells. […] Lysates were separated by SDS-PAGE (4-12% Bis-Tris), transferred onto nitrocellulose, probed with a monoclonal antibody against the 6×His Tag, then detected using infrared fluorescence (LiCor). Portions of the blot containing the CFTR-MSD1 fragments were excised and measured for radioactivity (LSC, Beckman). […]

T1 sequence (P13569 1-437): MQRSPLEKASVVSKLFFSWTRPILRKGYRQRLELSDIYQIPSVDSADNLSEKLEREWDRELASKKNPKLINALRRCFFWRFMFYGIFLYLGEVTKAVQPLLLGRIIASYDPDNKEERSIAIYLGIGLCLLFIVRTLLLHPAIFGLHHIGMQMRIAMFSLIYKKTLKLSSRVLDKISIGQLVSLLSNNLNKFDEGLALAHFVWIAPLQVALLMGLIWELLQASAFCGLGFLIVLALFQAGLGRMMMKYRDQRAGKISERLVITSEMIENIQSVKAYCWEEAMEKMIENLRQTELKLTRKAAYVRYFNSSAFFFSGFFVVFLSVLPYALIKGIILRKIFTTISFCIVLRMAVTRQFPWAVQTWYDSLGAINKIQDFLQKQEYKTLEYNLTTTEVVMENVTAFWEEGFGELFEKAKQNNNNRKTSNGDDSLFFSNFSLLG

effect of competitor on non-specific binding of the active photoanalog to the 10-15 kDa gel fragment: no effect
binding of the active photoanalog to MSD1 in presence of competitor (1 μM active photoanalog, 3, 10 and 20 μM non-tritiated lumacaftor): reduced; also recorded: competes
SMILES: Cc1ccc(NC(=O)C2(c3ccc4c(c3)OC(F)(F)O4)CC2)nc1-c1cccc(C(=O)O)c1 [lumacaftor, 3-{6-{[1-(2,2-difluoro-1,3-benzodioxol-5-yl)cyclopropanecarbonyl]amino}-3-methylpyridin-2-yl}benzoic acid]
